Experimental data: US20060276464A1, “Diarylsulfone sulfonamides and use thereof” (Wyeth, priority 2005, published 2006)
pEC50, pIC50: −log10 of the molar value. Where “and” joins values, the source holds several entries; their conditions need not be identical. Equal values may be shown once. Read-outs that look alike come from different tables or passages of the source.

Assays:
[1] = biological target: T1, SFRP-1 (Homo sapiens, UniProt Q8N474); assay: Fluorescence polarization binding assay (competitive displacement of a probe compound from SFRP-1); conditions: fluorescence anisotropy, 45 nM SFRP-1, 20 nM probe;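 further: test compound competes with a fluorescent probe held by SFRP-1, seen as a drop in probe anisotropy after incubation in darkness, with anisotropy as function of rising compound dose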
T1 sequence (Q8N474 32-314): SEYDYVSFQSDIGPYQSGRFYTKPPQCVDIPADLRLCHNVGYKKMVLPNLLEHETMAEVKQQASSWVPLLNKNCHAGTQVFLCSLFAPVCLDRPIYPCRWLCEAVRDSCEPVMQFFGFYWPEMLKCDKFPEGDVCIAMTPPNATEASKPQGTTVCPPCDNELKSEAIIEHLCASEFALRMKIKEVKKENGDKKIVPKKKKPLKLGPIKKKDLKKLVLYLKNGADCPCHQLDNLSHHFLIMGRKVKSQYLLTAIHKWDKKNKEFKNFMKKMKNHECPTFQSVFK

[2] = biological target: T1, SFRP-1; assay: Cell-based assay for in vitro measurement of SFRP-1/SARP2 antagonist activity (U2OS cells co-transfected with 16x TCF-tk-Luciferase reporter, Wnt and hSFRP-1); conditions: for fold induction at 15 µM / fold induction at 10 µM: U2OS;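 on all read-outs here: U2OS cells co-transfected with a TCF-tk luciferase reporter, a Wnt vector, hSFRP-1 or empty vector and CMV-βgal, luciferase luminescence read in cell lysates alongside βgal activity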
[3] = read-out: Fold Induction with SFRP-1, Conc 15 μM, single dose, luciferase reporter, fold induction over SFRP-1 control, cells with SFRP-1
[4] = read-out: Fold Induction without SFRP-1, Conc 15 μM, single dose, luciferase reporter, cells without SFRP-1 (specificity control)
[5] = read-out: Fold Induction with SFRP-1, Conc 15 μM, with SFRP-1, fold induction over SFRP-1 control, single dose
[6] = read-out: Fold Induction without SFRP-1, Conc 15 μM, without SFRP-1, single dose
[7] = read-out: Fold Induction with SFRP-1, U2OS cells, single dose 10 μM, luciferase reporter, fold induction over SFRP-1 control

SMILES: CN(CCCNS(=O)(=O)c1cc(S(=O)(=O)c2ccccc2)ccc1C(F)(F)F)C(=O)CCC(=O)O [Example 992, 4-{methyl[3-({(5-(phenylsulfonyl)-2-(trifluoromethyl)phenyl]sulfonyl}amino)propyl]amino}-4-oxobutanoic acid]
- pIC50 [1]: 6.15
- pEC50 [2]: 5.50

SMILES: CC(C)c1ccc(S(=O)(=O)c2ccc(F)cc2)cc1S(=O)(=O)NC1CCN(C(=O)N2CCOCC2)CC1 [Example 572, 5-[(4-fluorophenyl)sulfonyl]-2-isopropyl-N-[1-(morpholin-4-ylcarbonyl)piperidin-4-yl]benzenesulfonamide]
- pIC50 [1]: 6.30
- fold induction at 15 µM [2, 3]: 1.7
- fold induction at 15 µM [2, 4]: 1

SMILES: CNc1ccc(S(=O)(=O)c2ccc(C(C)C)c(S(=O)(=O)NC3CCOCC3)c2)cc1 [Example 358, 2-isopropyl-5-{[4-(methylamino)phenyl]sulfonyl}-N-(tetrahydro-2H-pyran-4-yl)benzenesulfonamide]
- pIC50 [1]: 6.22
- fold induction at 15 µM [2, 5]: 2.9
- fold induction at 15 µM [2, 6]: 1

SMILES: Cc1ccc(S(=O)(=O)c2ccccc2)cc1S(=O)(=O)NC1CCN(S(=O)(=O)c2cn(C)cn2)CC1 [Example 481, 2-methyl-N-{1-[(1-methyl-1H-imidazol-4-yl)sulfonyl]piperidin-4-yl}-5-(phenylsulfonyl)benzenesulfonamide]
- pIC50 [1]: 5.92
- fold induction at 15 µM [2, 5]: 1.8
- fold induction at 15 µM [2, 6]: 1

SMILES: O=S(=O)(NC1CCNCC1)c1cc(S(=O)(=O)c2ccc(NCCO)cc2)ccc1C(F)(F)F [Example 844, 5-({4-[(2-hydroxyethyl)amino]phenyl}sulfonyl)-N-piperidin-4-yl-2-(trifluoromethyl)benzenesulfonamide]
- pIC50 [1]: 6.80
- pEC50 [2]: 6.30
- fold induction at 10 µM [2, 7]: 4.4

SMILES: COC(=O)C1CCCC(NS(=O)(=O)c2cc(S(=O)(=O)c3ccccc3)ccc2C(F)(F)F)C1 (centres unmarked) [Example 945, methyl 3-({[5-(phenylsulfonyl)-2-(trifluoromethyl)phenyl]sulfonyl}amino)cyclohexanecarboxylate]
- pIC50 [1]: 6.05
- pEC50 [2]: 5.95
- fold induction at 10 µM [2, 7]: 2.9

SMILES: O=C(O)c1cccc(S(=O)(=O)N2CCC(CNS(=O)(=O)c3cc(S(=O)(=O)c4ccccc4)ccc3C(F)(F)F)CC2)c1 [Example 904, 3-({4-[({[5-(phenylsulfonyl)-2-(trifluoromethyl)phenyl]sulfonyl}amino)methyl]piperidin-1-yl}sulfonyl)benzoic acid]
- pIC50 [1]: 7.22
- pEC50 [2]: 6.15
- fold induction at 10 µM [2, 7]: 3.5

SMILES: O=C(O)COc1ccc2c(c1)CC(NS(=O)(=O)c1cc(S(=O)(=O)c3ccccc3)ccc1C(F)(F)F)C2 (centres unmarked) [Example 1031, {[2-({[5-(phenylsulfonyl)-2-(trifluoromethyl)phenyl]sulfonyl}amino)-2,3-dihydro-1H-inden-5-yl]oxy}acetic acid]
- pIC50 [1]: 7.70
- pEC50 [2]: 7.07

SMILES: CN(CCNS(=O)(=O)c1cc(S(=O)(=O)c2ccccc2)ccc1C(F)(F)F)C(=O)Oc1cccc(C(F)(F)F)c1 [Example 871, 3-(trifluoromethyl)phenyl methyl[2-({[5-(phenylsulfonyl)-2-(trifluoromethyl)phenyl]sulfonyl}amino)ethyl]carbamate]
- pIC50 [1]: 6.22
- pEC50 [2]: 5.42
- fold induction at 10 µM ([2]; read-out: Fold Induction with SFRP-1): 2

SMILES: CC(C)(C)OC(=O)N[C@H]1CC[C@H](NS(=O)(=O)c2cc(S(=O)(=O)c3ccccc3)ccc2C(F)(F)F)CC1 [Example 901, tert-butyl [trans-4-({[5-(phenylsulfonyl)-2-(trifluoromethyl)phenyl]sulfonyl}amino)cyclohexyl]carbamate]
- pIC50 [1]: 6.35
- pEC50 [2]: 6.65
- fold induction at 10 µM [2, 7]: 3.4

SMILES: O=C(CN1CCC(NS(=O)(=O)c2cc(S(=O)(=O)c3ccccc3)ccc2C(F)(F)F)CC1)N1CCOCC1 [Example 1087, N-[1-(2-morpholin-4-yl-2-oxoethyl)piperidin-4-yl]-5-(phenylsulfonyl)-2-(trifluoromethyl)benzenesulfonamide]
- pIC50 [1]: 6.89
- pEC50 [2]: 6.13

SMILES: O=S(=O)(NCCc1ccncc1)c1cc(S(=O)(=O)c2ccccc2)ccc1Cl [Example 641, 2-chloro-5-(phenylsulfonyl)-N-(2-pyridin-4-ylethyl)benzenesulfonamide]
- pIC50 [1]: 5.96
- fold induction at 15 µM [2, 3]: 3
- fold induction at 15 µM [2, 4]: 1

SMILES: N#Cc1ccc(CCNS(=O)(=O)c2cc(S(=O)(=O)c3ccccc3)ccc2C(F)(F)F)cc1 [Example 966, N-[2-(4-cyanophenyl)ethyl]-5-(phenylsulfonyl)-2-(trifluoromethyl)benzenesulfonamide]
- pIC50 [1]: 6.30
- pEC50 [2]: 6.64
- fold induction at 10 µM [2, 7]: 1.5

SMILES: CCC(O)CNc1ccc(S(=O)(=O)c2ccc(C)c(S(=O)(=O)NCCCn3ccnc3)c2)cc1 (centres unmarked) [Example 373, 5-({4-[(2-hydroxybutyl)amino]phenyl}sulfonyl)-N-[3-(1H-imidazol-1-yl)propyl]-2-methylbenzenesulfonamide]
- pIC50 [1]: 5.96
- fold induction at 15 µM [2, 5]: 2.8
- fold induction at 15 µM [2, 6]: 1

SMILES: Cc1ccc(S(=O)(=O)c2ccccc2)cc1S(=O)(=O)NC1CCN(C(=O)N(C)C)CC1 [Example 503, N,N-dimethyl-4-({[2-methyl-5-(phenylsulfonyl)phenyl]sulfonyl}amino)piperidine-1-carboxamide]
- pIC50 [1]: 5.62
- fold induction at 15 µM [2, 3]: 2.7
- fold induction at 15 µM [2, 4]: 0.9

SMILES: CC(C)c1ccc(S(=O)(=O)c2ccc(F)cc2)cc1S(=O)(=O)NCCn1ccnc1 [Example 318, 5-[(4-fluorophenyl)sulfonyl]-N-[2-(1H-imidazol-1-yl)ethyl]-2-isopropylbenzenesulfonamide]
- pIC50 [1]: 6.40 and 6.30 and 6.22 and 6.15 and 6.05
- fold induction at 15 µM [2, 5]: 3.9
- fold induction at 15 µM [2, 6]: 1.1

SMILES: Cc1cc(C)c(S(=O)(=O)c2ccccc2)cc1S(=O)(=O)NC1CCNCC1 [Example 923, 2,4-dimethyl-5-(phenylsulfonyl)-N-piperidin-4-ylbenzenesulfonamide]
- pIC50 [1]: 5.00
- pEC50 [2]: 5.73
- fold induction at 10 µM [2, 7]: 2.4

SMILES: COc1ccc(C(=O)N2CCC(NS(=O)(=O)c3cc(S(=O)(=O)c4ccccc4)ccc3C(F)(F)F)CC2)c(OC)c1 [Example 708, N-[1-(2,4-dimethoxybenzoyl)piperidin-4-yl]-5-(phenylsulfonyl)-2-(trifluoromethyl)benzenesulfonamide]
- pIC50 [1]: 6.52
- pEC50 [2]: 5.93
- fold induction at 10 µM [2, 7]: 3.7

SMILES: O=C(c1cscn1)N1CCC(NS(=O)(=O)c2cc(S(=O)(=O)c3ccccc3)ccc2C(F)(F)F)CC1 [Example 1090, 5-(phenylsulfonyl)-N-[1-(1,3-thiazol-4-ylcarbonyl)piperidin-4-yl]-2-(trifluoromethyl)benzenesulfonamide]
- pIC50 [1]: 7.22
- pEC50 [2]: 6.41

SMILES: Cc1cc(C)c(S(=O)(=O)c2ccccc2)cc1S(=O)(=O)NCCn1ccnc1 [Example 324, N-[2-(1H-imidazol-1-yl)ethyl]-2,4-dimethyl-5-(phenylsulfonyl)benzenesulfonamide]
- pIC50 [1]: 6.05
- fold induction at 15 µM [2, 5]: 3.2
- fold induction at 15 µM [2, 6]: 0.9

SMILES: CC(C)c1ccc(S(=O)(=O)c2cccc(OC(F)(F)F)c2)cc1S(=O)(=O)NCCc1ccccn1 [Example 506, 2-isopropyl-N-(2-pyridin-2-ylethyl)-5-{[3-(trifluoromethoxy)phenyl]sulfonyl}benzenesulfonamide]
- pIC50 [1]: 5.62
- fold induction at 15 µM [2, 3]: 2.7
- fold induction at 15 µM [2, 4]: 1

SMILES: CC(C)c1ccc(S(=O)(=O)c2ccccc2)cc1S(=O)(=O)NC[C@H]1CC[C@H](C(=O)O)CC1 [Example 954, trans-4-[({[2-isopropyl-5-(phenylsulfonyl)phenyl]sulfonyl}amino)methyl]cyclohexanecarboxylic acid]
- pIC50 [1]: 6.05
- pEC50 [2]: 5.25
- fold induction at 10 µM [2, 7]: 2.2

SMILES: CC(C)c1ccc(S(=O)(=O)c2cccc(C#N)c2)cc1S(=O)(=O)NCCc1ccccn1 [Example 539, 5-[(3-cyanophenyl)sulfonyl]-2-isopropyl-N-(2-pyridin-2-ylethyl)benzenesulfonamide]
- pIC50 [1]: 5.59
- fold induction at 15 µM [2, 3]: 2.9
- fold induction at 15 µM [2, 4]: 1.2

SMILES: CCCc1ccc(S(=O)(=O)c2ccccc2)cc1S(=O)(=O)NCC1CCOCC1 [Example 552, 5-(Phenylsulfonyl)-2-propyl-N-(tetrahydro-2H-pyran-4-ylmethyl)benzenesulfonamide]
- pIC50 [1]: 5.92
- fold induction at 15 µM [2, 3]: 2.4
- fold induction at 15 µM [2, 4]: 1.2

SMILES: CN(CCNS(=O)(=O)c1cc(S(=O)(=O)c2ccccc2)ccc1C(F)(F)F)C(=O)CCC(=O)O [Example 897, 4-{methyl[2-({[5-(phenylsulfonyl)-2-(trifluoromethyl)phenyl]sulfonyl}amino)ethyl]amino}-4-oxobutanoic acid]
- pIC50 [1]: 6.30
- pEC50 [2]: 5.87
- fold induction at 10 µM [2, 7]: 2.7

SMILES: Cc1ccc(S(=O)(=O)c2ccccc2)cc1S(=O)(=O)NC1CCN(Cc2ccccc2)CC1 [Example 413, N-(1-benzylpiperidin-4-yl)-2-methyl-5-(phenylsulfonyl)benzenesulfonamide]
- pIC50 [1]: 5.30
- fold induction at 15 µM [2, 5]: 2.2
- fold induction at 15 µM [2, 6]: 1.4
